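Grown in 96-well plates, cells were treated for 48 hours with each compound at five concentrations. Insufficient inhibition: endpoint recorded as highest concentration tested. GI50: concentration for 50% inhibition of growth. TGI: total growth inhibition.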
Columns and labels:
Test in all cases: NCI anticancer screen, dose series, 48 h
[1] = tested on: KM12 colon
[2] = tested on: HOP-62 NSCLC
[3] = tested on: NCI-H226 lung
[4] = tested on: UACC-257 melanoma
[5] = tested on: SW-620 colon
[6] = tested on: SNB-19 CNS
[7] = tested on: 786-0 renal
[8] = tested on: U251 CNS
[9] = tested on: COLO 205 colon
[10] = tested on: MDA-MB-435
[11] = tested on: OVCAR-3 ovarian
[12] = tested on: BT-549 breast
[13] = tested on: SF-268 CNS
[14] = tested on: LOX IMVI melanoma
[15] = tested on: OVCAR-5 ovarian
[16] = tested on: RPMI-8226 leukemia
[17] = tested on: NCI-H522 lung
[18] = tested on: SF-539 CNS
[19] = tested on: SK-MEL-2 melanoma
[20] = tested on: HCT-116 colon
[21] = tested on: IGROV1 ovarian
[22] = tested on: HCT-15 colon
[23] = tested on: MOLT-4 leukemia
[24] = tested on: SF-295 CNS
[25] = tested on: OVCAR-4 ovarian
[26] = tested on: RXF 393 renal
[27] = tested on: HT29 colon
[28] = tested on: ACHN renal
[29] = tested on: OVCAR-8 ovarian
[30] = tested on: NCI/ADR-RES ovarian
[31] = tested on: SNB-75 CNS
[32] = tested on: MCF7 breast
[33] = tested on: HS 578T breast
[34] = tested on: TK-10 renal
[35] = tested on: DU-145 prostate
[36] = tested on: M14 melanoma
[37] = tested on: CCRF-CEM leukemia
[38] = tested on: A498 renal
[39] = tested on: T-47D breast
[40] = tested on: UO-31 renal
[41] = tested on: NCI-H460 lung
[42] = tested on: HL-60(TB) leukemia
[43] = tested on: SR leukemia
[44] = tested on: A549 NSCLC
[45] = tested on: SK-OV-3 ovarian
[46] = tested on: HOP-92 NSCLC
[47] = tested on: PC-3 prostate
[48] = tested on: NCI-H23 lung
[49] = tested on: EKVX NSCLC
[50] = tested on: MALME-3M melanoma
[51] = tested on: CAKI-1 renal
[52] = tested on: MDA-MB-231 breast
[53] = tested on: SN12C renal
[54] = tested on: K-562 leukemia
[55] = tested on: UACC-62 melanoma
[56] = tested on: HCC-2998 colon
[57] = tested on: SK-MEL-5 melanoma
[58] = tested on: SK-MEL-28 melanoma

## CCN(CC)C(=O)CC1=C(C)/C(=C/c2[nH]c(-c3ccc[nH]3)cc2OC)N=C1C
[1]
  GI50: 0.374 µM
  TGI: 59.2 µM
[2]
  GI50: 0.504 µM
  TGI: 11.6 µM
[3]
  GI50: 0.531 µM
  TGI: 6.11 µM
[4]
  GI50: 1.03 µM
  TGI: 4.85 µM
[5]
  GI50: 0.334 µM
  TGI: 13.4 µM
[6]
  GI50: 4.1 µM
  TGI: > 100 µM
[7]
  GI50: 0.549 µM
  TGI: 3.36 µM
[8]
  GI50: 0.449 µM
  TGI: 15.5 µM
[9]
  GI50: 0.296 µM
  TGI: 10.1 µM
[10]
  GI50: 0.412 µM
  TGI: 14.6 µM
[11]
  GI50: 0.509 µM
  TGI: 14.1 µM
[12]
  GI50: 787 nM
  TGI: 47.1 µM
[13]
  GI50: 0.633 µM
  TGI: 21.3 µM
[14]
  GI50: 0.199 µM
  TGI: 0.513 µM
[15]
  GI50: 5.19 µM
  TGI: 60.9 µM
[16]
  GI50: 304 nM
  TGI: 2280 nM
[17]
  GI50: 0.456 µM
  TGI: 14 µM
[18]
  GI50: 0.498 µM
  TGI: 12.2 µM
[19]
  GI50: 0.275 µM
  TGI: 0.799 µM
[20]
  GI50: 0.286 µM
  TGI: 10.3 µM
[21]
  GI50: 0.43 µM
  TGI: 15.6 µM
[22]
  GI50: 0.278 µM
  TGI: 0.891 µM
[23]
  GI50: 357 nM
  TGI: 39.4 µM
[24]
  GI50: 0.361 µM
  TGI: 1.73 µM
[25]
  GI50: 409 nM
  TGI: > 100 µM
[26]
  GI50: 1.1 µM
  TGI: 22.9 µM
[27]
  GI50: 0.287 µM
  TGI: 48.3 µM
[28]
  GI50: 0.374 µM
  TGI: 1.97 µM
[29]
  GI50: 0.455 µM
  TGI: 22.5 µM
[30]
  GI50: 563 nM
  TGI: 14.8 µM
[31]
  GI50: 307 nM
  TGI: 3.35 µM
[32]
  GI50: 0.458 µM
  TGI: 17.9 µM
[33]
  GI50: 0.656 µM
  TGI: 7.97 µM
[34]
  GI50: 0.466 µM
  TGI: 17.3 µM
[35]
  GI50: 0.546 µM
  TGI: > 100 µM
[36]
  GI50: 0.227 µM
  TGI: 0.607 µM
[37]
  GI50: 258 nM
  TGI: 35 µM
[38]
  GI50: 0.98 µM
  TGI: 7.12 µM
[39]
  GI50: 272 nM
  TGI: 13.1 µM
[40]
  GI50: 0.554 µM
  TGI: 2.5 µM
[41]
  GI50: 0.366 µM
  TGI: 14.2 µM
[42]
  GI50: 1.82 µM
  TGI: 61.9 µM
[43]
  GI50: 0.289 µM
  TGI: 0.994 µM
[44]
  GI50: 0.639 µM
  TGI: > 100 µM
[45]
  GI50: 0.658 µM
  TGI: 8.3 µM
[46]
  GI50: 0.235 µM
  TGI: 977 nM
[47]
  GI50: 350 nM
  TGI: 33 µM
[48]
  GI50: 0.794 µM
  TGI: 71.9 µM
[49]
  GI50: 0.452 µM
  TGI: 38.7 µM
[50]
  GI50: 0.982 µM
  TGI: 9.05 µM
[51]
  GI50: 0.383 µM
  TGI: 11.4 µM
[52]
  GI50: 0.213 µM
  TGI: 909 nM

## CC1=CC[C@@H]2C(C)(C)C(=O)CC[C@@]2(C)[C@@H]1COc1ccc2ccc(=O)oc2c1
[53]
  GI50: 27.3 µM
  TGI: > 100 µM
[1]
  GI50: 9.15 µM
  TGI: 23.7 µM
[54]
  GI50: 7.02 µM
  TGI: 88.7 µM
[2]
  GI50: 22.3 µM
  TGI: 85.1 µM
[3]
  GI50: 8.7 µM
  TGI: 33.7 µM
[4]
  GI50: 12.3 µM
  TGI: 31 µM
[5]
  GI50: 24.9 µM
  TGI: > 100 µM
[6]
  GI50: 32.9 µM
  TGI: > 100 µM
[7]
  GI50: 46.8 µM
  TGI: > 100 µM
[8]
  GI50: 27.6 µM
  TGI: > 100 µM
[9]
  GI50: 10.6 µM
  TGI: 39.4 µM
[10]
  GI50: 11.9 µM
  TGI: 29.9 µM
[11]
  GI50: 10.1 µM
  TGI: 56.9 µM
[12]
  GI50: 4370 nM
  TGI: 22.5 µM
[13]
  GI50: 23.3 µM
  TGI: > 100 µM
[14]
  GI50: 17.6 µM
  TGI: 48.6 µM
[15]
  GI50: 25.9 µM
  TGI: > 100 µM
[17]
  GI50: 8.97 µM
  TGI: 50.9 µM
[18]
  GI50: 20.1 µM
  TGI: 63.8 µM
[19]
  GI50: 11.5 µM
  TGI: 42.3 µM
[20]
  GI50: 16.4 µM
  TGI: > 100 µM
[21]
  GI50: 16.2 µM
  TGI: 55.1 µM
[22]
  GI50: 13.4 µM
  TGI: 56.4 µM
[23]
  GI50: 3790 nM
  TGI: 17.9 µM
[55]
  GI50: 5.22 µM
  TGI: 23.5 µM
[24]
  GI50: 15.5 µM
  TGI: 44.3 µM
[25]
  GI50: 5530 nM
  TGI: 44.8 µM
[26]
  GI50: 62 µM
  TGI: > 100 µM
[27]
  GI50: 23.8 µM
  TGI: > 100 µM
[28]
  GI50: 15.3 µM
  TGI: 79.9 µM
[29]
  GI50: 5.69 µM
  TGI: 39 µM
[30]
  GI50: 4060 nM
  TGI: 19.9 µM
[32]
  GI50: 12.4 µM
  TGI: 31.9 µM
[33]
  GI50: 40.5 µM
  TGI: > 100 µM
[34]
  GI50: 45.3 µM
  TGI: > 100 µM
[35]
  GI50: 23.6 µM
  TGI: 93.6 µM
[36]
  GI50: 12.9 µM
  TGI: 32.7 µM
[37]
  GI50: 5480 nM
  TGI: 70.9 µM
[38]
  GI50: 6.56 µM
  TGI: > 100 µM
[39]
  GI50: 2690 nM
  TGI: 11.1 µM
[40]
  GI50: 8.15 µM
  TGI: 34.9 µM
[41]
  GI50: 21.8 µM
  TGI: 79.7 µM
[42]
  GI50: 7.3 µM
  TGI: 29.2 µM
[56]
  GI50: 30.3 µM
  TGI: > 100 µM
[43]
  GI50: 13.2 µM
  TGI: 68.5 µM
[44]
  GI50: 10.9 µM
  TGI: 71.2 µM
[45]
  GI50: 31.9 µM
  TGI: > 100 µM
[46]
  GI50: 27.4 µM
  TGI: > 100000 nM
[47]
  GI50: 5410 nM
  TGI: 31.8 µM
[57]
  GI50: 4 µM
  TGI: 14.2 µM
[48]
  GI50: 15.3 µM
  TGI: 61.2 µM
[49]
  GI50: 13.6 µM
  TGI: > 100 µM
[50]
  GI50: 14.4 µM
  TGI: 38.9 µM
[58]
  GI50: 16.7 µM
  TGI: 45.2 µM
[51]
  GI50: 9.5 µM
  TGI: 80.8 µM
[52]
  GI50: 25.5 µM
  TGI: > 100000 nM

From PubChem BioAssay (NCI)
